The target in test [1] is T1, HPK1 (Homo sapiens, UniProt Q92918). In words: HPK1 HTRF kinase assay. Type of test: biochemical. The note with it: 1000 µM ATP; 50 nM HPK1; STK1 substrate; read-out: HPK1, IC50. The procedure:
The reaction was initiated by adding 50 nM HPK1. After 120 minutes of reaction, the assay was terminated by adding 10 µL of Detection Mix.
The ratio of the signal at 665 nm to the signal at 615 nm was converted to the percentage of inhibition. Inhibition % = (maximum value - sample value) / (maximum value - minimum value)×100. The minimum value refers to the value measured in a well without enzyme but with DMSO and substrate, and the maximum value refers to the value measured in a well with DMSO, enzyme and substrate. IC50 values were calculated by XLFit (version 5.3.1.3) in Excel. Equation: Y = Bottom + (Top - Bottom) / (1 + (IC50/X) ^ HillSlope).

The test system of a further test is Phospho-SLP-76 (Ser376). In words: Phospho-SLP-76 (Ser376) HTRF assay in Jurkat E6-1 cells. Type of test: cell-based. The note with it: Homo sapiens, compound 4 hours, then anti-CD3 antibody 20 minutes, read-out: pSLP76, IC50. The procedure:
A compound was dissolved in DMSO to 10 mM, and then diluted three-fold with DMSO to 10 dosages in a 96-well plate. Then, 3 µL of the diluted compound sample was transferred to a 96-well plate with 97 µL of cell culture medium, and the plate was shaken for 5 minutes. According to the experimental design diagram, 7.5 µL of the diluted compound sample was transferred to a cell plate. Final concentrations of the compound in this assay were 10000.00, 3333.33, 1111.11, 370.37, 123.46, 41.15, 13.72, 4.57, 1.52 and 0.51 nM.
In this assay, the density of Jurkat E6-1 cells was maintained between 3*10^5 to 3*10^6 cells/mL. The cell culture was replaced with fresh culture medium every 2 to 3 days (depending on the cell density).
30 µL of Jurkat E6-1 (300,000 cells) was added to a 96-well plate and incubated in a 37 °C incubator for 1 hour. Then, according to the experimental design diagram, compounds (6×, 7.5 µL) were added to treat the cells for 4 hours, respectively. After 4 hours, purified anti-human anti-CD3 antibodies (6×, 7.5 µL) were added to treat the cells for 20 minutes. After 20 minutes, 15 µL of cell lysis buffer (4×) was added, and the cells were lysed at 25 °C with shaking (250 rpm) for 1 hour. Then, according to the experimental design diagram, 16 µL of cell lysate was transferred to a 384-well plate using a pipette. After the transfer, 4 µL of antibody detection mixture was added. After being placed at room temperature overnight, the plate was read by EnVision multi-function microplate reader to read the FRET signal (the ratio of HTRF 665/615 was calculated from the readings at 665 nm and 615 nm).
The ratio of the signal at 665 nm to the signal at 615 nm was converted to the percentage of inhibition. Inhibition % = (maximum value - sample value) / (maximum value - minimum value)×100. The minimum value refers to the signal value of a well without anti-CD3 antibody stimulation during the treatment of cells, and the maximum value refers to the signal value of a well with anti-CD3 antibody stimulation but without the compound during the treatment of cells. IC50 values were calculated by XLFit (version 5.3.1.3) in excel. Equation: Y = Bottom + (Top-Bottom) / (1 + (IC50/X) ^ HillSlope). Table 4. Results of cellular activity of the compounds
Background: Time-resolved FRET reads energy transfer from a long-lived donor to a nearby acceptor.

Another test deals with human Pan T cells. In words: Human Pan T cell IL-2 ELISA. The note with it: Homo sapiens, T-cell, 48 h, Anti-CD3 and Anti-CD28, supernatant IL-2 ELISA, read-out: IL-2 release, EC50. Format: cell-based. The method, boiled down: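 Human Pan T cells (1×10^6 cells/ml) stimulated with plate-bound anti-CD3 plus anti-CD28 and treated 48 h with compound at 9 final concentrations, 39.063–10000 nM. Supernatant IL-2 by ELISA, expressed as fold over DMSO wells; EC50 from four-parameter logistic fit.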
(In general: In an ELISA, binding on a coated surface is turned into a signal by an enzyme label.)

The target of test [2] is T1, HPK1. The test is described as follows: HPK1 ADP-Glo kinase assay. Type of test: biochemical. The note with it: 40 µM ATP; 5 nM HPK1; MBP protein substrate. On the procedure: 1×kinase buffer (40 mM Tris-HCl (pH 7.5), 20 mM MgCl2, 0.1 mg/ml BSA, 0.05 mM DTT), 2 µM MBP protein and 40 µM ATP, […] were included in the reaction mixture. The reaction was initiated by adding 5 nM HPK1. After 60 minutes of reaction, the assay was terminated by adding 5 µL of ADP-Glo™ reagent. After 60 minutes, 10 µL of kinase assay reagent was added. After being incubated at room temperature for 60 minutes, the assay plate was read by EnVision multi-function microplate reader.
The luminescent signal value was converted to the percentage of inhibition. Inhibition % = (maximum value - sample value) / (maximum value - minimum value)×100. The minimum value refers to the value measured in a well without enzyme but with DMSO and substrate, and the maximum value refers to the value measured in a well with DMSO, enzyme and substrate. IC50 values were calculated by XLFit (version 5.3.1.3) in Excel. Equation: Y = bottom + (top - bottom) / (1 + (IC50/X) ^ HillSlope).
For orientation: ADP-Glo turns the ADP formed in a reaction into a luminescent signal.

SMILES strings stand for the structures.

T1 sequence (Q92918 whole entry, species assumed): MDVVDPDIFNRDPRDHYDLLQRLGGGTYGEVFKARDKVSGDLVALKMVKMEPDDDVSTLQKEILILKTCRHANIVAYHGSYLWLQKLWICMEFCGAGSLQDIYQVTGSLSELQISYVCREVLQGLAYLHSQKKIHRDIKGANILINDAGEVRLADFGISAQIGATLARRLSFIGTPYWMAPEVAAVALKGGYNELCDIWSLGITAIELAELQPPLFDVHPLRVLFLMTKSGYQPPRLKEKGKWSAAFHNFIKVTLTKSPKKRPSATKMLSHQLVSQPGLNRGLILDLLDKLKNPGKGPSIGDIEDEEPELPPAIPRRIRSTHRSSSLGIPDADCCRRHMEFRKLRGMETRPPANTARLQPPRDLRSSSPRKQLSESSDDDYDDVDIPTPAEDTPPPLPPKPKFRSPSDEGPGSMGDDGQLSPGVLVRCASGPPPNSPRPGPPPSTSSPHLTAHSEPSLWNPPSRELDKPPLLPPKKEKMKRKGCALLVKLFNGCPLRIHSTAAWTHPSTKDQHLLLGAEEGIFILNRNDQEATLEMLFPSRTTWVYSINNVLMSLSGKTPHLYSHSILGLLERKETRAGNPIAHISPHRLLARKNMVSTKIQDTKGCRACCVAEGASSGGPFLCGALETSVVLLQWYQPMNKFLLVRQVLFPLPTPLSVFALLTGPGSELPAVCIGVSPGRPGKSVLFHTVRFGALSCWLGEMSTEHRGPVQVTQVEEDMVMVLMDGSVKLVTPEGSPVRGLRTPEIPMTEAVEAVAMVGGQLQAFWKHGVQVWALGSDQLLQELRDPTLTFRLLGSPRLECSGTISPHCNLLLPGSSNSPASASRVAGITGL

Regarding `CC1(C)c2cc(N3CCOCC3)ccc2Nc2c1cc(-c1cnc3cccnn13)c1c2C(=O)NC1` [Example 12], the IC50 (usually the point on the concentration scale where inhibition reaches its midpoint) at HPK1 [1] was found to be 0.00699 µM; in the test on Phospho-SLP-76 (Ser376), 0.0259 µM. Also, in the test with human Pan T cells, the EC50 (in general, the concentration giving half of the maximal effect) was determined as 0.00667 µM.

Consider `COc1cccn2c(-c3cc4c(c5c(=O)[nH]ccc35)Nc3ccc(N5CCOCC5)cc3C4(C)C)cnc12` [Example 3], for which the IC50 with Phospho-SLP-76 (Ser376) turned out to be 0.0575 µM; on HPK1 [2], 0.0003 µM. Further, the EC50 in the test on human Pan T cells was 0.038 µM.

As for `CC1(C)c2cc(N3CCOCC3)ccc2Nc2c1cc(-c1cnn3cccnc13)c1c2C(=O)NC1` [Example 16], the IC50 at HPK1 [1] amounted to 0.00285 µM; in the test with Phospho-SLP-76 (Ser376) it was 0.0316 µM. Further, the EC50 with human Pan T cells stood at 0.00681 µM.

On to `COc1cccn2c(-c3cc4c(c5c3CNC5=O)Nc3ccc(N5CCOCC5)cc3C4(C)C)cnc12` [Example 10], for which the IC50 stood at 0.00839 µM at HPK1 [1] and 0.0427 µM with Phospho-SLP-76 (Ser376).

In the case of `Cc1ccn2c(-c3cc4c(c5c3CNC5=O)Nc3ccc(N5CCOCC5)cc3C4(C)C)cnc2c1F` [Example 11], the half-inhibitory concentration (IC50) is 0.00738 µM at HPK1 [1] and 0.0733 µM in the test with Phospho-SLP-76 (Ser376). In addition, the half-maximal effective concentration (EC50) in the test with human Pan T cells came out at 0.0138 µM.

For `CC1(C)c2cc(N3CCOCC3)ccc2Nc2c1cc(-c1cnc3c(Cl)cccn13)c1cc[nH]c(=O)c21` [Example 1], the values for the IC50 in the test on Phospho-SLP-76 (Ser376) and on HPK1 [2] were 0.121 µM and 0.0001 µM, respectively.

For the compound `Cn1ccn2c(-c3cc4c(c5c3CNC5=O)Nc3ccc(N5CCOCC5)cc3C4(C)C)cnc2c1=O` [Example 41], the IC50 with Phospho-SLP-76 (Ser376) was found to be 0.0135 µM. The EC50 with human Pan T cells is 0.00609 µM.

Consider `COc1cccn2c(-c3cc4c(c5c(=O)[nH]ccc35)Nc3ccc(N5CCOC(C(C)(C)O)C5)cc3C4(C)C)cnc12` (stereo not shown) [Example 2], for which the IC50 in the test on Phospho-SLP-76 (Ser376) worked out at 0.064 µM; at HPK1 [2] it was 0.0017 µM.

As for `COc1cccc2c(-c3cc4c(c5c(=O)[nH]ccc35)Nc3ccc(N5CCOCC5)cc3C4(C)C)cnn12` [Example 8], the IC50 in the test on Phospho-SLP-76 (Ser376) was found to be 0.103 µM. In addition, in the test with human Pan T cells, the EC50 came out at 0.0055 µM.

For `COc1cccn2c(-c3cc4c(c5c3CNC5=O)Nc3cnc(N5CCOCC5)cc3C4(C)C)cnc12` [Example 14], the half-maximal inhibitory concentration (IC50) at HPK1 [1] was found to be 0.0303 µM; in the test on Phospho-SLP-76 (Ser376), 0.197 µM. The concentration for a half-maximal effect (EC50) in the test with human Pan T cells came to 0.0491 µM.

Regarding `COc1cccn2c(-c3cc4c(c5c3CNC5=O)Nc3ccc(N5CCOCC5)nc3C4(C)C)cnc12` [Example 20], the half-inhibitory concentration (IC50) at HPK1 [1] came out at 0.00576 µM; in the test on Phospho-SLP-76 (Ser376), 0.0836 µM. Besides, the EC50 in the test on human Pan T cells is 0.0113 µM.

With `COc1cccn2c(-c3cc4c(c5c3CCNC5=O)Nc3ccc(N5CCOCC5)cc3C4(C)C)cnc12` [Example 13], the IC50 in the test on Phospho-SLP-76 (Ser376) is 0.0244 µM.

On to `COc1cccc2c(-c3cc4c(c5c3CNC5=O)Nc3ccc(N5CCOCC5)cc3C4(C)C)cnn12` [Example 18], for which the values for the IC50 at HPK1 [1] and with Phospho-SLP-76 (Ser376) were 0.0117 µM and 0.066 µM, respectively. In addition, the EC50 with human Pan T cells turned out to be 0.0118 µM.

In the case of `Cc1ccn2c(-c3cc4c(c5c(=O)[nH]ccc35)Nc3ccc(N5CCOCC5)cc3C4(C)C)cnc2c1F` [Example 5], the EC50 in the test on human Pan T cells is 0.0108 µM. The compound further came in with a concentration for half-maximal inhibition (IC50) at HPK1 [2] of 0.00344 µM.

In the case of `COc1ccnn2c(-c3cc4c(c5c3CNC5=O)Nc3ccc(N5CCOCC5)cc3C4(C)C)cnc12` [Example 31], the IC50 on HPK1 [1] amounted to 0.0248 µM; in the test with Phospho-SLP-76 (Ser376) it was 0.0588 µM. Also, the EC50 in the test with human Pan T cells is 0.0037 µM.

For the compound `Cc1ccn2c(-c3cc4c(c5c3CNC5=O)Nc3ccc(N5CCOC(C(C)(C)O)C5)cc3C4(C)C)cnc2c1F` (stereo not shown) [Example 9], the half-maximal inhibitory concentration (IC50) turned out to be 0.0204 µM at HPK1 [1] and 0.0578 µM in the test with Phospho-SLP-76 (Ser376). Further, the EC50 in the test on human Pan T cells worked out at 0.00309 µM.

Turning to `COc1cccc2c(-c3cc4c(c5c3CNC5=O)Nc3ncc(N5CCOCC5)cc3C4(C)C)cnn12` [Example 21], the IC50 in the test with Phospho-SLP-76 (Ser376) amounted to 0.037 µM. The EC50 in the test with human Pan T cells stood at 0.00832 µM.

As to `Cc1ccn2c(-c3cc4c(c5c(=O)[nH]ccc35)Nc3ccc(N5CCOC(C(C)(C)O)C5)cc3C4(C)C)cnc2c1F` (stereo not shown) [Example 6], the concentration for half-maximal inhibition (IC50) in the test on Phospho-SLP-76 (Ser376) was 0.164 µM. Further, in the test on human Pan T cells, the concentration for a half-maximal effect (EC50) turned out to be 0.013 µM.

Turning to `CC1(C)c2cc(N3CCOCC3)ccc2Nc2c1cc(-c1cnn3c(C#N)cccc13)c1c2C(=O)NC1` [Example 17], the IC50 was determined as 0.00631 µM at HPK1 [1] and 0.0569 µM in the test on Phospho-SLP-76 (Ser376). For the same compound, in the test on human Pan T cells, the EC50 worked out at 0.00372 µM.

As to `Cc1ccc2c(-c3cc4c(c5c(=O)[nH]ccc35)Nc3ccc(N5CCOC(C(C)(C)O)C5)cc3C4(C)C)cnn2c1` (stereo not shown) [Example 7], the IC50 in the test with Phospho-SLP-76 (Ser376) stood at 0.487 µM.

Consider `COc1cccc2c(-c3nc4c(c5c3CCNC5=O)Nc3ccc(N5CCOCC5)cc3C4(C)C)cnn12` [Example 15], for which the IC50 with Phospho-SLP-76 (Ser376) was 0.0722 µM. Moreover, the concentration giving a half-maximal response (EC50) in the test on human Pan T cells turned out to be 0.00395 µM.

Turning to `CC1(C)c2cc(N3CCOCC3)ccc2Nc2c1cc(-c1cnn3cccnc13)c1cc[nH]c(=O)c21` [Example 4], in the test with Phospho-SLP-76 (Ser376), the IC50 was 0.0381 µM. The EC50 with human Pan T cells was determined as 0.00461 µM.

For the origin of these results see patent publication EP4567031A1, “HPK1 INHIBITOR, PREPARATION METHOD THEREFOR, AND USE THEREOF” (Beijing Earthwise Technology Co., Ltd., priority 2022, dated 2024).
